Experimental data published in US9840513B2 (AbbVie S.à.r.l., priority 2015, dated 2017).
pEC50: −log10 of the molar value.

Tests used:
[1] = molecular target: T1, F508delCFTR cell surface expression in CFBE41o-F508delCFTR-HRP cells (Homo sapiens, UniProt P13569, DEL508-508); assay: Cell Surface Expression-Horse Radish Peroxidase (CSE-HRP) Assay; type: cell-based; settings: for pEC50: CFBE41o-F508delCFTR-HRP cells, 18-24 hours at 33° C., 8-point curve, highest concentration 20 μM; for Maximum % activity (%): maximum at any tested concentration, normalized to on-plate positive control (3 μM)
T1 construct: fused on or other part: Horseradish peroxidase (HRP) reporter inserted in the fourth exofacial (extracellular) loop of CFTR; expression is doxycycline-inducible
Procedure, shortened: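 Correctors incubated 18-24 h at 33 °C on doxycycline-induced (0.5 μg/mL, 72 h) CFBE41o-F508delCFTR-HRP cells, 3-fold series from 20 μM. After DPBS washes, luminol luminescence read; activity expressed relative to DMSO and a 3 μM positive control, EC50 fitted from triplicate plates.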

[2] = molecular target: T2, F508delCFTR in primary hBE cells with F508del/F508del CFTR mutation (Homo sapiens, UniProt P13569, DEL508-508); assay: Transepithelial Clamp Circuit on Human Bronchial Epithelial Cells Conductance Assay (hBE-TECC); type: cell-based; settings: for pEC50: primary hBE cells F508del/F508del, 18-24 hours at 37° C., equivalent short circuit current, 6 concentrations
T2 construct: cells isolated from CF patients with the homozygous mutation; endogenous in cells; host or cells: primary human bronchial epithelial (hBE) cells from F508del/F508del CF patients
Procedure, shortened: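 Primary F508del/F508del hBE cells grown 35 days at air-liquid interface, treated basolaterally with correctors 18-24 h at 37° C. Ieq (Vt/Rt) at 36.5° C, pH 7.4, after benzamil, forskolin 10 μM, control potentiator, bumetanide; 6 concentrations normalized to DMSO and 3 μM positive-control corrector, EC50 by 4-parameter fit.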

[3] = relative to positive control (3 μM) coupled with control potentiator

T2 sequence (P13569 with tags, fused parts or gaps DEL508-508): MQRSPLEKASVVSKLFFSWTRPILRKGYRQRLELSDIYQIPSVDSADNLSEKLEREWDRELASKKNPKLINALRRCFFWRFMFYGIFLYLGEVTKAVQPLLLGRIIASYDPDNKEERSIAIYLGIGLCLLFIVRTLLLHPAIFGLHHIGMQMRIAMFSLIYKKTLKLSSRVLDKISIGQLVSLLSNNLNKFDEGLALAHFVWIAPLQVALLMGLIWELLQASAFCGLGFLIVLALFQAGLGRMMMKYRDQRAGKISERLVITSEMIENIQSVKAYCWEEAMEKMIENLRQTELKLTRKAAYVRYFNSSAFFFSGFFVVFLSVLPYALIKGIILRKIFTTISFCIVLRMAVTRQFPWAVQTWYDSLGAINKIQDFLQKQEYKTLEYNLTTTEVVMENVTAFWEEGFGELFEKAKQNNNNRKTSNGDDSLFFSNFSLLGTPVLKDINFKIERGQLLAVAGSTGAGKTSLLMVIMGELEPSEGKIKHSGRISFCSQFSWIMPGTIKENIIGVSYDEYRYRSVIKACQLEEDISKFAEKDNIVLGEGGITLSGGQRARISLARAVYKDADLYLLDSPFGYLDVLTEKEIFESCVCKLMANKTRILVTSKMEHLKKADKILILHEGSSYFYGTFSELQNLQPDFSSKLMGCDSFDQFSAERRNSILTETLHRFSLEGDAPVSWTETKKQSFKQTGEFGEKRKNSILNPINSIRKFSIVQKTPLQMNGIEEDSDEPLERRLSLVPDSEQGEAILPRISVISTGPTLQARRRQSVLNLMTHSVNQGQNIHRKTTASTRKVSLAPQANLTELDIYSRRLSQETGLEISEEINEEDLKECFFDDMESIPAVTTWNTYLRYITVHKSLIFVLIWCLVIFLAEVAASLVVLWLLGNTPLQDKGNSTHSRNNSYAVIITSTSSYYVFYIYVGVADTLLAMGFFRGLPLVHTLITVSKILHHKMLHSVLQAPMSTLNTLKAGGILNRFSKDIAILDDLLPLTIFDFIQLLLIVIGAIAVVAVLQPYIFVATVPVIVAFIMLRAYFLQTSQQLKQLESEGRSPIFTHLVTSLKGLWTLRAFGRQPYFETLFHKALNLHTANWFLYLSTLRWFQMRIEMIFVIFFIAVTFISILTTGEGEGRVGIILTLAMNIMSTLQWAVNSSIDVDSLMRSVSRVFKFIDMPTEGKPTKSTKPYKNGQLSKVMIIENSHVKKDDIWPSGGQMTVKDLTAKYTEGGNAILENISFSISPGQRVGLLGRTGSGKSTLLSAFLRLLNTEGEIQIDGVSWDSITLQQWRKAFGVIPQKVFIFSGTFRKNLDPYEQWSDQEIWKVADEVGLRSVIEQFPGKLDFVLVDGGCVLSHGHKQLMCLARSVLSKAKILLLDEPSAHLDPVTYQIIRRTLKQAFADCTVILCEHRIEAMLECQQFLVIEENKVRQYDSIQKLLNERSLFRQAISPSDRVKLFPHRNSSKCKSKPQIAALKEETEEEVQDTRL
T1 sequence (P13569 with tags, fused parts or gaps DEL508-508 limits assumed): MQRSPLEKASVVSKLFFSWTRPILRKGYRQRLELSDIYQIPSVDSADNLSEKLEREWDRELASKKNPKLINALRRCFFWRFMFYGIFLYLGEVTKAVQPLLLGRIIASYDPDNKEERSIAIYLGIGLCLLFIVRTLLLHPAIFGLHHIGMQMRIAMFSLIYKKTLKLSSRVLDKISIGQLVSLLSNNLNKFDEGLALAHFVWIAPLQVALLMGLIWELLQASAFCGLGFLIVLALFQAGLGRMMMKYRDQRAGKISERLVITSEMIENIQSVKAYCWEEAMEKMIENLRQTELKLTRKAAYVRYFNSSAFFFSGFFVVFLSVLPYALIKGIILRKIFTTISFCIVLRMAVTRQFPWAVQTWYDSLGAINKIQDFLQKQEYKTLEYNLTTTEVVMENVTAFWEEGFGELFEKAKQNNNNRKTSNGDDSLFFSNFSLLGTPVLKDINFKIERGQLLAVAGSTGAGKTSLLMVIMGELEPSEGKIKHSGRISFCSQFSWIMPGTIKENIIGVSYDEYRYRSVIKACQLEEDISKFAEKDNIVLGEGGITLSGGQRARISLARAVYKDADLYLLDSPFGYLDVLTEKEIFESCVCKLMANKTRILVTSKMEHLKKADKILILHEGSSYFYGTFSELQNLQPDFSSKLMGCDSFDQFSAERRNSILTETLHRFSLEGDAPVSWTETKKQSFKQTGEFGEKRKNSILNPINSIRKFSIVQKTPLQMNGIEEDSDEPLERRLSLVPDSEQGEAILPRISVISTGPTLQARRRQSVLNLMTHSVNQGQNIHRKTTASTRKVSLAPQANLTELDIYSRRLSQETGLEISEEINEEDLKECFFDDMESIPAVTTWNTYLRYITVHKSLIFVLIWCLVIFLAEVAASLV
T1 sequence (P13569 919-1480 limits assumed, stated change not applied): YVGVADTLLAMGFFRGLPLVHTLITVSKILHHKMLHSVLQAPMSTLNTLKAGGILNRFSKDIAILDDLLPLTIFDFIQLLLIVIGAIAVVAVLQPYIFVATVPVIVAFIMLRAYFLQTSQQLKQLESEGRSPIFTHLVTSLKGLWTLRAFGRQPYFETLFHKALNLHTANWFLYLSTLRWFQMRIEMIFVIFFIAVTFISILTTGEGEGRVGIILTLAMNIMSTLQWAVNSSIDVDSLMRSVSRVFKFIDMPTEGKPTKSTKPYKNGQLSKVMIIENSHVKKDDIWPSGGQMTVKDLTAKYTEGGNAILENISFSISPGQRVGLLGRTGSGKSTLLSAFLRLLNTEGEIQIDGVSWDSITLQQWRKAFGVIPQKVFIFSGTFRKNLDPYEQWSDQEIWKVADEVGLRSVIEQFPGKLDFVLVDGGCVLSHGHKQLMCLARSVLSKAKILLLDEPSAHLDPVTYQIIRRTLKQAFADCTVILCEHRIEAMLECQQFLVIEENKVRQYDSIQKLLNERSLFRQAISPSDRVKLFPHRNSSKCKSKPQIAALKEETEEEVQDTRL

pEC50 [1]	Maximum % activity (%) [1] [%]	Maximum % activity (%) ([2]; testing concentration 3 μM)	Maximum % activity (%) ([2]; testing concentration 1 μM)	pEC50 [2]	Maximum % activity (%) [2, 3] [%]	Structure (SMILES)
6.03	76	80				CC1(C(=O)N[C@@H]2C[C@H](c3cccc(C(=O)O)c3)Oc3ccccc32)CCc2cc3c(cc21)OC(F)(F)O3 (stereo partly drawn) [Example 35, 3-{(2R,4R)-4-[(2,2-difluoro-5-methyl-6,7-dihydro-2H,5H-indeno[5,6-d][1,3]dioxole-5-carbonyl)amino]-3,4-dihydro-2H-1-benzopyran-2-yl}benzoic acid]
6.21	127		65			C[C@]1(C(=O)Nc2cccc(N3CC[C@H](C(=O)O)C3)n2)COc2cc3c(cc21)OC(F)(F)O3 [Example 90, (3S)-1-(6-{[(7R)-2,2-difluoro-7-methyl-6,7-dihydro-2H-furo[2,3-f][1,3]benzodioxole-7-carbonyl]amino}pyridin-2-yl)pyrrolidine-3-carboxylic acid]
5.73	135			6.55	100	C[C@]1(C(=O)N[C@@H]2C[C@H](C3(C(=O)N4C[C@H](O)[C@@H](O)C4)CC3)Oc3cc(OC(F)(F)F)ccc32)COc2cc3c(cc21)OC(F)(F)O3 [Example 282, (7R)—N-[(2R,4R)-2-{1-[(3S,4S)-3,4-dihydroxypyrrolidine-1-carbonyl]cyclopropyl}-7-(trifluoromethoxy)-3,4-dihydro-2H-1-benzopyran-4-yl]-2,2-difluoro-7-methyl-6,7-dihydro-2H-furo[2,3-f][1,3]benzodioxole-7-carboxamide]
6.54	157			6.70	103	Cc1ccc(NC(=O)[C@@]2(C)COc3cc4c(cc32)OC(F)(F)O4)nc1-c1cccc(C(=O)O)c1 [Example 6, 3-(6-{[(7R)-2,2-difluoro-7-methyl-6,7-dihydro-2H-furo[2,3-f][1,3]benzodioxole-7-carbonyl]amino}-3-methylpyridin-2-yl)benzoic acid]
7.59	145			8.00	94	C[C@]1(C(=O)N[C@@H]2C[C@H]([C@H]3CC[C@H](C(=O)O)CC3)Oc3cc(OC(F)(F)F)ccc32)COc2cc3c(cc21)OC(F)(F)O3 [Example 150, trans-4-[(2R,4R)-4-{[(7R)-2,2-difluoro-7-methyl-6,7-dihydro-2H-furo[2,3-f][1,3]benzodioxole-7-carbonyl]amino}-7-(trifluoromethoxy)-3,4-dihydro-2H-1-benzopyran-2-yl]cyclohexane-1-carboxylic acid]
5.71	84			5.99	79	CC1(C)COC(C)(C)c2c1n(C[C@@H](O)CO)c1cc(F)c(NC(=O)[C@@]3(C)COc4cc5c(cc43)OC(F)(F)O5)cc21 [Example 206, (7R)—N-{5-[(2R)-2,3-dihydroxypropyl]-7-fluoro-1,1,4,4-tetramethyl-1,3,4,5-tetrahydropyrano[4,3-b]indol-8-yl}-2,2-difluoro-7-methyl-6,7-dihydro-2H-furo[2,3-f][1,3]benzodioxole-7-carboxamide]
6.79	127			7.37	101	COc1ccc2c(c1)O[C@@H]([C@H]1CC[C@H](C(=O)O)CC1)C[C@H]2NC(=O)[C@@]1(C)CCc2cc3c(cc21)OC(F)(F)O3 [Example 168, trans-4-[(2R,4R)-4-{[(5S)-2,2-difluoro-5-methyl-6,7-dihydro-2H,5H-indeno[5,6-d][1,3]dioxole-5-carbonyl]amino}-7-methoxy-3,4-dihydro-2H-1-benzopyran-2-yl]cyclohexane-1-carboxylic acid]
5.90	162			6.33	94	CC1(C(=O)N[C@@H]2C[C@H](c3cccc(C(=O)O)c3)Oc3ccccc32)COc2cc3c(cc21)OC(F)(F)O3 (stereo partly drawn) [Example 21, 3-{(2R,4R)-4-[(2,2-difluoro-7-methyl-6,7-dihydro-2H-furo[2,3-f][1,3]benzodioxole-7-carbonyl)amino]-3,4-dihydro-2H-1-benzopyran-2-yl}benzoic acid]
6.92	118			7.82	94	COc1ccc2c(c1)O[C@@H](c1ccc(CO)cn1)C[C@H]2NC(=O)[C@@]1(C)COc2cc3c(cc21)OC(F)(F)O3 [Example 174, (7R)-2,2-difluoro-N-{(2R,4R)-2-[5-(hydroxymethyl)pyridin-2-yl]-7-methoxy-3,4-dihydro-2H-1-benzopyran-4-yl}-7-methyl-6,7-dihydro-2H-furo[2,3-f][1,3]benzodioxole-7-carboxamide]
7.22	168			8.00	106	C[C@]1(C(=O)N[C@@H]2C[C@H]([C@H]3CC[C@H](C(=O)N4C[C@H](O)[C@@H](O)C4)CC3)Oc3cc(OC(F)(F)F)ccc32)COc2cc3c(cc21)OC(F)(F)O3 [Example 256, (7R)—N-[(2R,4R)-2-{trans-4-[(3S,4S)-3,4-dihydroxypyrrolidine-1-carbonyl]cyclohexyl}-7-(trifluoromethoxy)-3,4-dihydro-2H-1-benzopyran-4-yl]-2,2-difluoro-7-methyl-6,7-dihydro-2H-furo[2,3-f][1,3]benzodioxole-7-carboxamide]
6.14	83			6.25	70	Cc1ccc(NC(=O)[C@]2(C)CCc3c2ccc2c3OCO2)cc1-c1cccc(C(=O)O)c1 (single isomer, unassigned) [Example 37]
6.32	109			6.71	79	C[C@]1(C(=O)Nc2cc3cc(C4(CO)CCC4)n(C[C@@H](O)CO)c3cc2F)COc2cc3c(cc21)OC(F)(F)O3 [Example 134, (7R)—N-{1-[(2R)-2,3-dihydroxypropyl]-6-fluoro-2-[1-(hydroxymethyl)cyclobutyl]-1H-indol-5-yl}-2,2-difluoro-7-methyl-6,7-dihydro-2H-furo[2,3-f][1,3]benzodioxole-7-carboxamide]
5.88	157			6.26	78	COc1ccc2c(c1)O[C@@H](c1cnc(C(=O)O)cn1)C[C@H]2NC(=O)[C@@]1(C)COc2cc3c(cc21)OC(F)(F)O3 [Example 144, 5-[(2R,4R)-4-{[(7R)-2,2-difluoro-7-methyl-6,7-dihydro-2H-furo[2,3-f][1,3]benzodioxole-7-carbonyl]amino}-7-methoxy-3,4-dihydro-2H-1-benzopyran-2-yl]pyrazine-2-carboxylic acid]
6.33	154			6.93	134	COc1ccc2c(c1)O[C@@H]([C@H]1CC[C@H](C(=O)N3C[C@H](O)[C@@H](O)C3)CC1)C[C@H]2NC(=O)[C@@]1(C)COc2cc3c(cc21)OC(F)(F)O3 [Example 281, (7R)—N-[(2R,4R)-2-{trans-4-[(3S,4S)-3,4-dihydroxypyrrolidine-1-carbonyl]cyclohexyl}-7-methoxy-3,4-dihydro-2H-1-benzopyran-4-yl]-2,2-difluoro-7-methyl-6,7-dihydro-2H-furo[2,3-f][1,3]benzodioxole-7-carboxamide]
6.55	108			6.83	70	CC(C)(CO)c1cc2cc(NC(=O)[C@@]3(C)COc4cc5c(cc43)OC(F)(F)O5)c(F)cc2n1C[C@@H](O)CC#N [Example 179, (7R)—N-{1-[(2S)-3-cyano-2-hydroxypropyl]-6-fluoro-2-(1-hydroxy-2-methylpropan-2-yl)-1H-indol-5-yl}-2,2-difluoro-7-methyl-6,7-dihydro-2H-furo[2,3-f][1,3]benzodioxole-7-carboxamide]
6.89	174			7.16	129	C[C@]1(C(=O)N[C@@H]2C[C@H]([C@H]3CC[C@H](C(=O)NCC(O)CO)CC3)Oc3cc(OC(F)(F)F)ccc32)COc2cc3c(cc21)OC(F)(F)O3 (stereo partly drawn) [Example 260, (7R)—N-[(2R,4R)-2-{trans-4-[(2,3-dihydroxypropyl)carbamoyl]cyclohexyl}-7-(trifluoromethoxy)-3,4-dihydro-2H-1-benzopyran-4-yl]-2,2-difluoro-7-methyl-6,7-dihydro-2H-furo[2,3-f][1,3]benzodioxole-7-carboxamide]
6.41	105			7.17	72	CC(C)(CO)c1cc2cc(NC(=O)[C@@]3(C)COc4cc5c(cc43)OC(F)(F)O5)c(F)cc2n1C[C@@H](O)CO [Example 130, (7R)—N-{1-[(2R)-2,3-dihydroxypropyl]-6-fluoro-2-(1-hydroxy-2-methylpropan-2-yl)-1H-indol-5-yl}-2,2-difluoro-7-methyl-6,7-dihydro-2H-furo[2,3-f][1,3]benzodioxole-7-carboxamide]
